Results from patent publication US11951094B2, “TLR2 modulator compounds, pharmaceutical compositions and uses thereof” (Axial Therapeutics, Inc., priority 2020, dated 2024).

Molecular target: TLR2 (Homo sapiens, UniProt O60603)
Assay: TLR2 agonist screening assay, HEK-Blue TLR2 reporter cell line (NF-kB-driven SEAP, absorbance at 600 nm)
Assay type: cell-based
Parameters: host or cells: HEK-293 (HEK-Blue TLR2 reporter cell line)
Conditions: HEK-Blue TLR2 reporter cells, agonist mode; average of all runs (Table 3)
From the text: TLRs are a class of cell-surface receptors expressed on many different cell types that recognize conserved structural motifs present on pathogen-derived molecules. TLR2 recognizes bacteria-derived lipopeptides. […] Provided herein is an assay to identify and characterize the binding affinities of novel TLR2 agonists.
The in vitro TLR2 assay consists of a cell line that responds to TLR2 engagement by producing a factor that elicits a color change in the culture media and can be readily measured by various colorimetric detection methods. This assay enables the identification of existing and novel compounds that engage TLR2 and, by virtue of compound dilution, to approximate the binding affinity of these compounds for eliciting a TLR2 signal.
The TLR2 screening assay was developed from the HEK-Blue TLR2 reporter cell line that is commercially available from Invivogen (San Diego, CA). The reporter cell line consists of HEK-293 embryonic kidney cells that have been engineered to express TLR2 and with an NF-kB promoter driving expression of Secreted Alkaline Phosphatase (SEAP). Upon engagement of TLR2, downstream signaling results in activation of NF-kB pathway activation and secretion of SEAR In the presence of the detection reagent in the tissue culture media, SEAP mediates a color change from clear to indigo that is readily assessed by measuring absorbance at 600 nm.
HEK-Blue TLR2 reporter cells are cultured according to manufacturer's specifications until a confluence of 70-90%, at which point the cells are trypsinized, counted, and plated into 96-well plates at approximately 40,000 cells per well. Cells are cultured overnight and the TLR2 assay is performed 16-24 hours post-plating into 96 well plates.
Compounds are diluted from stocks dissolved in DMSO and a 1% DMSO final concentration is maintained in all testing wells.
The assay consists of removing the cell culture media after cells have been cultured overnight and replacing the media with HEK-Blue Detection media with TLR2 agonists at indicated dilution schemes. The Detection media contains a chemical substrate that turns from clear to indigo when acted upon by SEAP. The HEK-Blue cells are then cultured overnight in Detection media with diluted compounds. After overnight culture with agonists, each well of the plate is assayed in a plate reader at 600 nanometer absorbance.
• (1) HEK-Blue TLR2 cells are diluted in complete DME culture medium and plated into 96-well plates at 40,000 cells per well and cultured overnight. • (2) After 16-24 hours in culture, the media is removed and replaced with 200 microliters per well of HEK-Blue Detection media. • (3) TLR2 agonists are diluted 100-fold from DMSO stocks into each well, yielding a final DMSO concentration of 1% in all wells. • (3) Treated cells are cultured overnight and the following day are assayed in plate reader for Absorbance at 600 nanometer.
Following assay measurements utilizing either HEK-Blue detection or cytokine release, all data is analyzed with the GraphPad Prism8 statistical package to determine EC50, binding and activity metrics for the TLR2 modulators.
Data is generated using protocol described in Example 44.

Chain of TLR2 (O60603 21-784): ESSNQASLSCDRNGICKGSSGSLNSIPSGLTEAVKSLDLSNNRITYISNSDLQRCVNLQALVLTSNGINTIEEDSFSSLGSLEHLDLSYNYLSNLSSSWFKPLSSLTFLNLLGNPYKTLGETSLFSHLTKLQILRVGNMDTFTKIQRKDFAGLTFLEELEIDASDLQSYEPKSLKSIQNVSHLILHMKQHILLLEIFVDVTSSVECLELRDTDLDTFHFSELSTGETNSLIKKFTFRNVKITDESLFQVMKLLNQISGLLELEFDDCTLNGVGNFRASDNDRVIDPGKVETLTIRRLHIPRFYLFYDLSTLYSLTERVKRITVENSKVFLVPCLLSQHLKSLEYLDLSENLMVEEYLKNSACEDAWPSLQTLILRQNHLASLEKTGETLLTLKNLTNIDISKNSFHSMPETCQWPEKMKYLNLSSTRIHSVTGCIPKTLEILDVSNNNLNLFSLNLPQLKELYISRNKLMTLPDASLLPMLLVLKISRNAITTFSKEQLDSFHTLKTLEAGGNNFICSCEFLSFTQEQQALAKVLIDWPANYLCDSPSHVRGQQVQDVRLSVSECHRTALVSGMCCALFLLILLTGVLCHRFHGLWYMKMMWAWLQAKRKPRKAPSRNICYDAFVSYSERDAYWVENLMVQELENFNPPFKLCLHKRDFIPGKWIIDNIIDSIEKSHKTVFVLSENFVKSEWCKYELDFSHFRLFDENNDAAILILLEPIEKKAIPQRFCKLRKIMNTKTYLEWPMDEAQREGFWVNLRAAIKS

SMILES	EC50 [nM]
CCCCCCCS(=O)(=O)N1CCN(C(=O)c2ccc(C(=O)N3C[C@@H](C(=O)N[C@H]4C[C@@H]4c4ccccc4)[C@H](C(=O)N[C@H]4C[C@@H]4c4ccccc4)C3)cc2)CC1C(=O)NCCCCCC (some centres unmarked) [Compound 047]	> 1000
O=C(N[C@H]1C[C@@H]1c1ccccc1)[C@@H]1CN(C(=O)c2cnc(C(=O)N3C[C@@H](C(=O)N[C@H]4C[C@@H]4c4ccccc4)[C@H](C(=O)N[C@H]4C[C@@H]4c4ccccc4)C3)nc2)C[C@H]1C(=O)N[C@H]1C[C@@H]1c1ccccc1 [Compound 071, (3S,3'S,4S,4'S)-1,1′-(pyrimidine-2,5-dicarbonyl)bis(N3,N4-bis((1S,2R)-2-phenylcyclopropyl)pyrrolidine-3,4-dicarboxamide)]	51 to 350
CCCCCCNC(=O)[C@@H]1C[C@H](C(=O)NCCCCCC)CN(C(=O)c2ccc(C(=O)N3C[C@@H](C(=O)N[C@H]4C[C@@H]4c4ccccc4)[C@H](C(=O)N[C@H]4C[C@@H]4c4ccccc4)C3)cc2)C1 (relative stereo) [Compound 038, (3R*,5S*)-1-(4-((3S,4S)-3,4-bis(((1S,2R)-2-phenylcyclopropyl)carbamoyl)pyrrolidine-1-carbonyl)benzoyl)-N3,N5-dihexylpiperidine-3,5-dicarboxamide]	351 to 1000
CCCCCCNC(=O)[C@@H](CNC(=O)c1ccc(C(=O)N2C[C@@H](C(=O)N[C@H]3C[C@@H]3c3ccccc3)[C@H](C(=O)N[C@H]3C[C@@H]3c3ccccc3)C2)cc1)NC(=O)CCCCCC [Compound 070, (3S,4S)-1-(4-(((R)-2-heptanamido-3-(hexylamino)-3-oxopropyl)carbamoyl)benzoyl)-N3,N4-bis((1S,2R)-2-phenylcyclopropyl)pyrrolidine-3,4-dicarboxamide]	> 1000
CCCCCCNC(=O)[C@@H]1C[C@@H](C(=O)NCCCCCC)CN(C(=O)c2ccc(C(=O)N3C[C@@H](C(=O)N[C@H]4C[C@@H]4c4ccccc4)[C@H](C(=O)N[C@H]4C[C@@H]4c4ccccc4)C3)cc2)C1 [Compound 043]	> 1000
CCCCCCCC(=O)N1CCN(C(=O)c2ccc(C(=O)N3C[C@@H](C(=O)N[C@H]4C[C@@H]4c4ccccc4)[C@H](C(=O)N[C@H]4C[C@@H]4c4ccccc4)C3)cc2)CC1C(=O)N[C@H]1C[C@@H]1c1ccccc1 (some centres unmarked) [Compound 040]	> 1000
CCCCCCCCCCCC(=O)N1CCN(C(=O)c2ccc(C(=O)N3C[C@@H](C(=O)N[C@H]4C[C@@H]4c4ccccc4)[C@H](C(=O)N[C@H]4C[C@@H]4c4ccccc4)C3)cc2)CC1C(=O)NCCCCCC (stereo partly drawn) [Compound 057, (3S,4S)-1-(4-(4-dodecanoyl-3-(hexylcarbamoyl)piperazine-1-carbonyl)benzoyl)-N3,N4-bis((1S,2R)-2-phenylcyclopropyl)pyrrolidine-3,4-dicarboxamide]	51 to 350

Same assay, conditions: HEK-Blue TLR2 reporter cells, agonist mode; average of all runs (Table 4)

SMILES	EC50 [nM]
CCCCCCCCCCCCCCNC(=O)[C@@H]1CN(C(=O)c2cccc(C(=O)N3C[C@@H](C(=O)N[C@H]4C[C@@H]4c4ccccc4)[C@H](C(=O)N[C@H]4C[C@@H]4c4ccccc4)C3)c2)CCN1C(C)=O [Compound 164, (3S,4S)-1-(3-((S)-4-acetyl-3-(tetradecylcarbamoyl)piperazine-1-carbonyl)benzoyl)-N3,N4-bis ((1S,2R)-2-phenylcyclopropyl) pyrrolidine-3,4-dicarboxamide]	> 1000
CCCCCCNC(=O)CC[C@@H](NC(=O)c1ccc(C(=O)N2C[C@@H](C(=O)N[C@H]3C[C@@H]3c3ccccc3)[C@H](C(=O)N[C@H]3C[C@@H]3c3ccccc3)C2)cc1)C(=O)NCCCCCC [Compound 099, (3S,4S)-1-(4-(((R)-1,5-bis(hexylamino)-1,5-dioxopentan-2-yl)carbamoyl)benzoyl)-N3,N4-bis((1S,2R)-2-phenylcyclopropyl)pyrrolidine-3,4-dicarboxamide]	> 1000
CCCCCCCCCCCCCCCN1CCCC(NC(=O)c2ccc(C(=O)N3C[C@@H](C(=O)N[C@H]4C[C@@H]4c4ccccc4)[C@H](C(=O)N[C@H]4C[C@@H]4c4ccccc4)C3)cc2)C1=O (some centres unmarked) [Compound 136]	0.1 to 50
CCCCCCCC(=O)N1CCN(S(=O)(=O)c2cccc(C(=O)N3C[C@@H](C(=O)N[C@H]4C[C@@H]4c4ccccc4)[C@H](C(=O)N[C@H]4C[C@@H]4c4ccccc4)C3)c2)C[C@H]1C(=O)NCCCCCC [Compound 170, (3S,4S)-1-(3-(((S)-3-(hexylcarbamoyl)-4-octanoylpiperazin-1-yl)sulfonyl)benzoyl)-N3,N4-bis((1S,2R)-2-phenylcyclopropyl)pyrrolidine-3,4-dicarboxamide]	> 1000
CCCCCCCCCCCCCNC(=O)N[C@H]1CN(c2nc3cc(C(=O)N4C[C@@H](C(=O)N[C@H]5C[C@@H]5c5ccccc5)[C@H](C(=O)N[C@H]5C[C@@H]5c5ccccc5)C4)ccc3o2)C[C@@H]1OC [Compound 245, (3S,4S)-1-(2-((3S,4S)-3-methoxy-4-(3-tridecylureido)pyrrolidin-1-yl)benzo[d]oxazole-5-carbonyl)-N3,N4-bis((1S,2R)-2-phenylcyclopropyl)pyrrolidine-3,4-dicarboxamide]	> 1000
CCCCCCCCCCCNC(=O)[C@@H]1CN(C(=O)c2ccc(C(=O)N3C[C@@H](C(=O)N[C@H]4C[C@@H]4c4ccccc4)[C@H](C(=O)N[C@H]4C[C@@H]4c4ccccc4)C3)cc2)CCN1C(C)=O [Compound 256, (3S,4S)-1-(4-((S)-4-acetyl-3-(undecylcarbamoyl)piperazine-1-carbonyl)benzoyl)-N3,N4-bis((1S,2R)-2-phenylcyclopropyl) pyrrolidine-3,4-dicarboxamide]	> 1000
CCCCCCCCCCCCCCC(=O)N[C@@H]1CN(C(=O)c2ccc(C(=O)N3C[C@@H](C(=O)N[C@H]4C[C@@H]4c4ccccc4)[C@H](C(=O)N[C@H]4C[C@@H]4c4ccccc4)C3)cc2)C[C@H]1O [Compound 157, (3S,4S)-1-(4-((3R,4R)-3-hydroxy-4-pentadecanamidopyrrolidine-1-carbonyl)benzoyl)-N3,N4-bis ((1S,2R)-2-phenylcyclopropyl) pyrrolidine-3,4-dicarboxamide]	351 to 1000
CCCCCCCCCNC(=O)[C@H](CNC(=O)c1ccc(C(=O)N2C[C@@H](C(=O)N[C@H]3C[C@@H]3c3ccccc3)[C@H](C(=O)N[C@H]3C[C@@H]3c3ccccc3)C2)cc1)NC(=O)CCCCCCCCC [Compound 207, (3S,4S)-1-(4-(((S)-2-decanamido-3-(nonylamino)-3-oxopropyl)carbamoyl)benzoyl)-N3,N4-bis((1S,2R)-2-phenylcyclopropyl)pyrrolidine-3,4-dicarboxamide]	0.1 to 50
O=C(N[C@H]1C[C@@H]1c1ccccc1)[C@@H]1CN(C(=O)C23CCC(C(=O)N4C[C@@H](C(=O)N[C@H]5C[C@@H]5c5ccccc5)[C@H](C(=O)N[C@H]5C[C@@H]5c5ccccc5)C4)(C2)C3)C[C@H]1C(=O)N[C@H]1C[C@@H]1c1ccccc1 [Compound 144, (3S,3'S,4S,4'S)-1,1′-(bicyclo[2.1.1]hexane-1,4-dicarbonyl)bis(N3,N4-bis((1S,2R)-2-phenylcyclopropyl)pyrrolidine-3,4-dicarboxamide)]	351 to 1000
CCCCCCCC(=O)N1CCN(S(=O)(=O)c2cccc(C(=O)N3C[C@@H](C(=O)N[C@H]4C[C@@H]4c4ccccc4)[C@H](C(=O)N[C@H]4C[C@@H]4c4ccccc4)C3)c2)C[C@@H]1C(=O)NCCCCCC [Compound 171, (3S,4S)-1-(3-(((R)-3-(hexylcarbamoyl)-4-octanoylpiperazin-1-yl)sulfonyl)benzoyl)-N3,N4-bis((1S,2R)-2-phenylcyclopropyl)pyrrolidine-3,4-dicarboxamide]	> 1000
